Test results taken from publication PMC12030627, “Radioiodinated Bicyclic RGD Peptide Derivatives for Enhanced Tumor Accumulation” (Pharmaceuticals, 2025).
Where two headings read alike, the source gives them in different places. Starred links: 1 amine or outer side, 2 acyl side, 3 side chain; linkers in the order of their positions; H or OH if unused. Positions of bridges follow the written chain, without caps; N, C: chain ends. Non-standard residues stand in square brackets, D forms with d. Residues, ends and D or L forms follow the SMILES beside them. *: point of attachment. Butanoyl(4-(4-I-phenyl)) = O=C(CCCc1ccc(I)cc1)*; TBMB = c1c(C[*:1])cc(C[*:3])cc1C[*:2]; Benzoyl(3-I) = O=C(c1cccc(I)c1)*; 4Abz = Nc1ccc(C(=O)O)cc1

Assay: Biodistribution in U-87 MG tumor-bearing mice
Assay type: in vivo, BALB/c nu-nu mice
Details: male, BALB/c nu-nu, mouse, iv, 37 kBq, total radioactivity, U-87 MG-bearing mice, mean ± SD, n = 3; for tissue uptake at 1 h / tissue uptake dose at 1 h: 1 h after i.v. administration; for tissue uptake at 2 h / tissue uptake dose at 2 h: 2 h after i.v. administration; for tissue uptake at 6 h / tissue uptake dose at 6 h: 6 h after i.v. administration; for tissue uptake at 5 min / tissue uptake dose at 5 min: 5 min after i.v. administration; for tissue uptake at 0.5 h / tissue uptake dose at 0.5 h: 30 min after i.v. administration
Protocol: Animal experiments were performed in compliance with institutional animal care regulations, with the study protocol approved by the Experimental Animal Committee of Osaka Medical and Pharmaceutical University (Approval Numbers: 21–76, 22–76, and 23–76). Four-week-old male BALB/c nu-nu mice (Japan SLC, Shizuoka, Japan) were housed under a 12 h light/12 h dark cycle with free access to food and water. Tumor-bearing mice were established by suspending U-87 MG cells (2 × 10^6 cells/mouse) in PBS(–) and subcutaneously injecting 100 μL of the suspension into the right hind leg. For co-implantation models, A549 cells (2 × 10^6 cells/mouse) were suspended in PBS(–) and inoculated (100 μL) into the left hind leg of the same mice already inoculated with U-87 MG cells. Mice with tumor size approximately 10 mm in diameter, 4–5 weeks after inoculation, were used for biodistribution studies. Animals in which either tumor was not viable were excluded from the experiment.
U-87 MG-bearing mice (n = 42, 8–9 weeks old; 22–27 g) were randomly assigned into groups and administered [^125I]bcRGDpal or [^125I]bcRGDiba via intravenous injection (37 kBq in 100 μL of PBS containing 0.1% Tween 80 (PBS-T80)). At 5 min, 30 min, 1 h, 2 h, 6 h, 12 h, or 24 h post-injection, the mice were euthanized (n = 3 per time point). The heart, kidneys, liver, brain, pancreas, spleen, lung, small intestine, large intestine, muscle, skin, stomach, bone, and tumors were excised. Each organ’s weight and radioactivity were measured by a NaI well-type scintillation counter, and the % ID/g was calculated. To investigate the correlation between integrin expression and radioactivity accumulation, biodistribution at 2 h after administration of [^125I]bcRGDpal or [^125I]bcRGDiba was assessed in A549 and U-87 MG co-implantation mice (n = 5) using the same procedure. Additionally, co-implantation mice were injected with [^125I]bcRGDdimer (37 kBq/100 μL PBS-T80) and euthanized at 30 min, 2 h, and 4 h post-injection (n = 4 per time point), and % ID/g values were calculated as described above. The minimum sample size needed for the biodistribution study in U-87 MG-bearing mice was calculated using G Power software version 3.1.9.7. The calculation was based on a two-tailed test, with an effect size of 3.9, a significance level (α) of 0.05, and a statistical power (1 − β) of 0.8. […] The minimum required sample size for the biodistribution study in A549 and U-87 MG co-implantation mice was also calculated to be four animals per group (effect size = 2.5, α = 0.05, 1 − β = 0.8). To guarantee objective results, the experiment was carried out in a blinded manner. Specifically, drug administration and radioactivity measurements were conducted by different investigators to eliminate potential bias.

[1] = liver, read-out: Radioactivity in liver
[2] = lung, read-out: Radioactivity in lung
[3] = muscle, read-out: Radioactivity in muscle
[4] = pancreas, read-out: Radioactivity in pancreas
[5] = small intestine, read-out: Radioactivity in small intestine
[6] = spleen, read-out: Radioactivity in spleen
[7] = stomach, read-out: Radioactivity in stomach
[8] = thyroid, read-out: Radioactivity in thyroid

## N=C(N)NCCC[C@@H]1NC(=O)[C@H]2CSCc3cc(cc(c3)CSC[C@H](C(N)=O)NC(=O)[C@H](CC(=O)O)NC(=O)CNC1=O)CSC[C@H](NC(=O)CNC(=O)[C@H](CO)NC(=O)c1ccc(NC(=O)CNC(=O)[C@H](CO)NC(=O)[C@@H]3CCCN3C(=O)[C@@H]3CCCN3C(=O)[C@@H]3CCCN3C(=O)[C@H](CCCCNC(=O)c3cccc(I)c3)NC(=O)CCCc3ccc(I)cc3)cc1)C(=O)N[C@@H](Cc1c[nH]cn1)C(=O)N1CCC[C@H]1C(=O)N[C@@H](CCC(N)=O)C(=O)N2 [[^125I]bcRGDiba] ({Butanoyl(4-(4-I-phenyl))}-K(Benzoyl(3-I))PPPSG[4Abz]SGCHPQ[dC]RGD[dC]-NH2; linker 10-14-18 via TBMB)
[1]
  tissue uptake at 1 h: 5.7 ± 0.7 %ID/g
  tissue uptake at 2 h: 5.1 ± 0.4 %ID/g
  tissue uptake at 6 h: 3.4 ± 0.4 %ID/g
liver, 12 h after i.v. administration, read-out: Radioactivity in liver
  tissue uptake at 12 h: 1.4 ± 0.2 %ID/g
liver, 24 h after i.v. administration, read-out: Radioactivity in liver
  tissue uptake at 24 h: 0.6 %ID/g
[2]
  tissue uptake at 5 min: 10.7 ± 1.9 %ID/g
  tissue uptake at 0.5 h: 9.4 ± 0.3 %ID/g
  tissue uptake at 1 h: 8.2 ± 0.6 %ID/g
  tissue uptake at 2 h: 7.5 ± 0.4 %ID/g
  tissue uptake at 6 h: 5.3 ± 0.5 %ID/g
lung, 12 h after i.v. administration, read-out: Radioactivity in lung
  tissue uptake at 12 h: 2.6 ± 0.3 %ID/g
lung, 24 h after i.v. administration, read-out: Radioactivity in lung
  tissue uptake at 24 h: 1.2 ± 0.1 %ID/g
[3]
  tissue uptake at 5 min: 1.4 ± 0.4 %ID/g
  tissue uptake at 0.5 h: 1.5 ± 0.2 %ID/g
  tissue uptake at 1 h: 1.5 ± 0.1 %ID/g
  tissue uptake at 2 h: 1.5 ± 0.2 %ID/g
  tissue uptake at 6 h: 1.2 ± 0.3 %ID/g
muscle, 12 h after i.v. administration, read-out: Radioactivity in muscle
  tissue uptake at 12 h: 0.5 ± 0.1 %ID/g
muscle, 24 h after i.v. administration, read-out: Radioactivity in muscle
  tissue uptake at 24 h: 0.3 %ID/g
[4]
  tissue uptake at 5 min: 2.3 ± 0.4 %ID/g
  tissue uptake at 0.5 h: 2 ± 0.2 %ID/g
  tissue uptake at 1 h: 1.5 ± 0.2 %ID/g
  tissue uptake at 2 h: 1.4 ± 0.2 %ID/g
  tissue uptake at 6 h: 1 ± 0.2 %ID/g
pancreas, 12 h after i.v. administration, read-out: Radioactivity in pancreas
  tissue uptake at 12 h: 0.5 ± 0.1 %ID/g
pancreas, 24 h after i.v. administration, read-out: Radioactivity in pancreas
  tissue uptake at 24 h: 0.2 %ID/g
[5]
  tissue uptake at 5 min: 2.3 ± 0.4 %ID/g
  tissue uptake at 0.5 h: 3 ± 0.1 %ID/g
  tissue uptake at 1 h: 4.8 ± 0.6 %ID/g
  tissue uptake at 2 h: 4.9 ± 0.3 %ID/g
  tissue uptake at 6 h: 5.6 ± 1.1 %ID/g
Small intestine, 12 h after i.v. administration, read-out: Radioactivity in small intestine
  tissue uptake at 12 h: 2.2 ± 0.5 %ID/g
Small intestine, 24 h after i.v. administration, read-out: Radioactivity in small intestine
  tissue uptake at 24 h: 0.9 ± 0.1 %ID/g
[6]
  tissue uptake at 5 min: 2.9 ± 0.5 %ID/g
  tissue uptake at 0.5 h: 3 ± 0.2 %ID/g
  tissue uptake at 1 h: 2.5 ± 0.2 %ID/g
  tissue uptake at 2 h: 2.3 ± 0.3 %ID/g
  tissue uptake at 6 h: 1.7 ± 0.5 %ID/g
spleen, 12 h after i.v. administration, read-out: Radioactivity in spleen
  tissue uptake at 12 h: 0.9 ± 0.1 %ID/g
spleen, 24 h after i.v. administration, read-out: Radioactivity in spleen
  tissue uptake at 24 h: 0.4 %ID/g
[7]
  tissue uptake dose at 5 min: 0.4 ± 0.1 %ID
  tissue uptake dose at 0.5 h: 0.8 ± 0.2 %ID
  tissue uptake dose at 1 h: 0.7 ± 0.1 %ID
  tissue uptake dose at 2 h: 0.7 ± 0.3 %ID
  tissue uptake dose at 6 h: 0.8 ± 0.2 %ID
stomach, 12 h after i.v. administration
  tissue uptake dose at 12 h: 0.2 ± 0.1 %ID
stomach, 24 h after i.v. administration
  tissue uptake dose at 24 h: 0.2 %ID
[8]
  tissue uptake dose at 5 min: 0.1 %ID
  tissue uptake dose at 0.5 h: 0.1 ± 0.1 %ID
  tissue uptake dose at 1 h: 0.1 ± 0.1 %ID
  tissue uptake dose at 2 h: 0.1 ± 0.1 %ID
  tissue uptake dose at 6 h: 0.1 %ID
